Tests used:
[1] = system: Ishikawa human endometrium carcinoma cell line; assay: Inhibition of colony formation (dose-survival relation, Example 18); format: cell-based; conditions: for inhibition of colony formation: 30 to 50 µM
[2] = system: MCF-7 human mammary carcinoma cell line; assay: as above; format: cell-based; conditions: treated once
[3] = system: MDA-MB-231 human mammary carcinoma cell line; assay: as above; format: cell-based
[4] = system: PC3 human prostate carcinoma cell line; assay: as above; format: cell-based; conditions: for inhibition of colony formation: 30 to 50 µM
[5] = system: MCF-7; conditions: MCF-7; 30 µM active substance; conjugate, treated once; cell count on 7th day
Description: (§1) The procedure of treatment was as follows. After trypsinization the cells, 400,000 cells of MCF-7, MDA-MB-231 human mammary carcinoma, PC3 human prostate carcinoma or Ishikawa human endometrium tumour each were passed into Petri dishes of 10 cm in diameter. Starting from the day following transfer, the cells were treated with the substances to be tested in solution prepared with the nutrient medium during the exponential growth phase. […]

[6] = system: MDA-MB-231; conditions: MDA-MB-231; 30 µM active substance; conjugate, treated once
Description: as §1

[7] = system: MXT mouse mammary tumour; assay: In vivo antitumour effect on mice bearing MXT mouse mammary tumour; set-up: species or system CBA/Ca mice
Description: The MXT mouse mammary carcinoma contains ER and PgR proteins; furthermore, it contains also GnRH receptors; therefore, this in vivo tumour model is suitable for studying both the direct and indirect effects. The treatment of mice bearing MXT mammary tumour was commenced on the day following transplantation. […] Table VI The animals were daily treated in s.c. route starting from the day following transplantation of MXT mouse mammary tumour. […] MI-1544: 75 µg/day/animal; MI-1892: 75 µg/day/animal.

[8] = system: humoral immune response; assay: Humoral immune response (antibody production of B-lymphocytes); format: in vivo; conditions: mice; dose not stated
Description: (§2) The immunosuppressive side effect of cytostatics used in tumour therapy is commonly known. This effect can be compensated to a certain grade by various immunostimulants (endotoxin, levamisole). Polypeptides with much […] molecular weights (about 40,000 to 80,000) are also capable of protecting against immunosuppressive effect [Gaál et al: J. Biol. Resp. Modif., 5, 148-159 (1986)]. The molecular weight of the novel polyanionic P-GFLG-OH macromolecule tested by us is about 10,000, that of MI-1892 is about 2000, i.e. relatively low; therefore, their immunostimulatory activity was unexpected.

[9] = system: cellular immune response; assay: Cellular immune response (rosette formation against BRBC antigen); format: in vivo; conditions: mice; dose not stated
Description: as §2

[10] = Castration effect: uterus weight of xenograft-bearing animals; format: in vivo, mice; conditions: animals bearing MCF-7 xenografts; treatment for four weeks
Description: The castration effect is illustrated by the following data.

[11] = MXT mouse mammary tumour, Treatment weeks: 13, 1x75 µg daily s.c.
[12] = MXT mouse mammary tumour, Treatment weeks: 20, 1x75 µg daily s.c.

| Substance | inhibition of colony formation [1] [%] | % Inhibition of colony formation ([2]; 10 µM (active substance)) [%] | % Inhibition of colony formation ([2]; 50 µM (active substance)) [%] | % Inhibition of colony formation ([3]; 10 µM) [%] | % Inhibition of colony formation ([4]; 10 µM) [%] | inhibition of colony formation [4] [%] | % Inhibition of cell division (proliferation) [5] [%] | % Inhibition of cell division (proliferation) [6] [%] | Inhibition % [7, 11] [%] | Tumour volume as control (%) [7, 11] [%] | Inhibition % [7, 12] [%] | Tumour volume as control (%) [7, 12] [%] | Tumour volume (cm^3) ([7]; day 9, 75 µg/day/animal s.c.) | Tumour volume as control (%) ([7]; day 9, 75 µg/day/animal s.c.) | Tumour volume (cm^3) ([7]; day 11, 75 µg/day/animal s.c.) | Tumour volume as control (%) ([7]; day 11, 75 µg/day/animal s.c.) | Tumour volume (cm^3) ([7]; day 13, 75 µg/day/animal s.c.) | Tumour volume as control (%) ([7]; day 13, 75 µg/day/animal s.c.) | Tumour volume (cm^3) ([7]; day 17, 75 µg/day/animal s.c.) | Tumour volume as control (%) ([7]; day 17, 75 µg/day/animal s.c.) | other results |
| --- | --- | --- | --- | --- | --- | --- | --- | --- | --- | --- | --- | --- | --- | --- | --- | --- | --- | --- | --- | --- | --- |
| Ac-D-Trp^1,3,D-Cpa^2, {Lys[n-poly(N-vinyl pyrrolidone-co-maleic acid)-Gly-Phe-Leu-Gly-]}^5, [a-Asp(DEA)]^6, D-Ala^10-GnRH [P-GFLG-1892] | 100 | 60 | 93 | 92 | 86 | 100 | 45 | 42 | 72 | 28 | 62 | 38 | 0.29 | 40 | 0.66 | 36 | 0.91 | 28 | 1.86 | 36 | % Inhibition of colony formation ([1]; 10 µM): 72%; % Inhibition of colony formation ([1]; 30 µM): 100%; % Inhibition of colony formation ([3]; 30 µM): 100%; Tumour volume (cm^3) ([7]; day 18, 75 µg/day/animal s.c.): 3.1 cm^3; Tumour volume as control (%) ([7]; day 18, 75 µg/day/animal s.c.): 42%; Tumour volume (cm^3) ([7]; day 20, 75 µg/day/animal s.c.): 3.61 cm^3; Tumour volume as control (%) ([7]; day 20, 75 µg/day/animal s.c.): 38%; Tumour volume (cm^3) ([7]; day 24, 75 µg/day/animal s.c.): 6.07 cm^3; Tumour volume as control (%) ([7]; day 24, 75 µg/day/animal s.c.): 48%; Tumour volume (cm^3) ([7]; day 26, 75 µg/day/animal s.c.): 8.91 cm^3; Tumour volume as control (%) ([7]; day 26, 75 µg/day/animal s.c.): 64%; increase of the humoral immune response [8]: possesses an immunostimulatory effect; increase of the cellular immune response [9]: two-fold |
| Ac-D-Trp^1,3,D-Cpa^2,{Lys(n-poly-(N-vinylpyrrolidone-co-maleic acid)-Gly-Phe-Leu-Gly]}^6,D-Ala^10-GnRH [P-GFLG-1544] | 100 | 85 | 100 | 80 | 100 | 100 | 58 | 45 | 61 | 39 | 49 | 51 | 0.38 | 55 | 0.74 | 41 | 1.26 | 39 | 2.43 | 46 | % Inhibition of colony formation ([1]; 50 µM): 100%; % Inhibition of colony formation ([3]; 50 µM): 100%; % Inhibition of colony formation ([4]; 50 µM): 100%; Tumour volume (cm^3) ([7]; day 18, 75 µg/day/animal s.c.): 3.91 cm^3; Tumour volume as control (%) ([7]; day 18, 75 µg/day/animal s.c.): 52%; Tumour volume (cm^3) ([7]; day 20, 75 µg/day/animal s.c.): 4.74 cm^3; Tumour volume as control (%) ([7]; day 20, 75 µg/day/animal s.c.): 51%; Tumour volume (cm^3) ([7]; day 24, 75 µg/day/animal s.c.): 7.34 cm^3; Tumour volume as control (%) ([7]; day 24, 75 µg/day/animal s.c.): 58%; Tumour volume (cm^3) ([7]; day 26, 75 µg/day/animal s.c.): 9.03 cm^3; Tumour volume as control (%) ([7]; day 26, 75 µg/day/animal s.c.): 65%; uterus weight [10]: 0.1149 ± 0.0110 g |

Reference: patent publication EP0728012B1, “NOVEL GnRH ANALOGUES WITH ANTITUMOUR EFFECTS AND PHARMACEUTICAL COMPOSITIONS THEREOF” (Lovas, Sandor, priority 1994, dated 1996)
